From patent US20080242635A1, “Method for Lengthening the Seasonal Mobility Period of Fish” (priority 2005, published 2008)

Legend:
[1] = system: fish; assay: Lengthening the seasonal mobility period of fish by feed supplements; format: in vivo; conditions: for Lengthening of the seasonal mobility period of fish (in words): feed supplement
[2] = system: koi fish; assay: Pond test: fish feed to lengthen the period of seasonal mobility of koi (Example 5); format: in vivo; conditions: relative index 1 to 5 (1 fully immobile, 5 fully mobile), 10 gram feed per day, additive per Table 1
Text: Four ponds of 40 cubic meters each, all contained 50 koi fish with an approximate total body weight of 50 kg were used to show effectiveness of the fish feed according to the invention. One pond served as a control were the fish were fed with control feed, the fish in the other ponds received a feed according to the invention as prepared in examples 2 to 4 above. The experiment started when the temperature of the water was about 2 degrees Celsius.
The fish in control pond were fed with 10 gram Cyprico White 3 mm floater feed per day, whereas the fish in the other pond were fed with 10 gram of the feeds as described in Example 2, 3 and 4 Table 1).
This effect increased gradually every day until after 5 days the fish were fully mobile, whereas the temperature of the water was still between 2 and 3 degrees Celsius. Mobility of the fish was scored on a relative index of 1 to 5 wherein 1 is fully immobile and 5 is fully mobile Table 2). The water in the control pond was at exactly the same temperature as that of the other ponds, however the fish in the control pond were completely immobile. […] The fish were healthy and fully mobile whereas the control group was almost fully immobile.
Fish in ponds 1, 2 and 3 were fed with fish feed according to the invention, fish in pond 4 received control feed. Further details are described in the examples.

For 1,3 and 1,6 beta glucans, the “Lengthening of the seasonal mobility period of fish (in words)” value [1] was “very useful” and the “Daily intake, optimum of cost benefit” value ([1]; in vivo) was “around 60 ug/kglw/day”.

`O=C(O)Cc1c[nH]c2ccccc12` [free IAA, indole-3-acetic acid] was tested, and the “Lengthening of the seasonal mobility period of fish (in words)” value [1] was “Particularly good results”, the Mobility ([2]; day 1, water 2 degrees Celsius) was 1 and the Mobility ([2]; day 2, water 2 degrees Celsius) was 1. It also gave a Mobility ([2]; day 3, water 3 degrees Celsius) of 1, a Mobility ([2]; day 4, water 3 degrees Celsius) of 2 and a Mobility ([2]; day 5, water 3 degrees Celsius) of 2. It also gave a Mobility ([2]; day 8, water 3 degrees Celsius) of 3, a Mobility ([2]; day 12, water 3 degrees Celsius) of 2 and a Mobility ([2]; day 16, water 4 degrees Celsius) of 2. It also gave a Mobility ([2]; day 20, water 5 degrees Celsius) of 3, a Mobility ([2]; day 24, water 5 degrees Celsius) of 4 and a Mobility ([2]; day 28, water 6 degrees Celsius) of 4.
